pIC50: −log10 of the molar value.
target: T1, p38a activated, mitogen-activated protein kinase-activated protein kinase 2 (MAPKAP-K2 or MK2) enzyme (Homo sapiens, UniProt P49137); experiment: MK2 OMNIA biochemical assay (AssayQuant continuous-read kinase assay); details: [MK-2]=0.05 nM, [ATP]=100 μM, [AQT0425]=10 μM
T1 construct: purchased Invitrogen PV3317
Description: Example 56.2. Mitogen-Activated Protein Kinase-Activated Protein Kinase 2 AssayQuant Technologies® Assay for Compound Potency Assessment (MK2 OMNIA Biochemical Assay)
The protocol below describes a continuous-read kinase assay optimized to measure potency of compounds against p38a activated, mitogen-activated protein kinase-activated protein kinase 2 (MAPKAP-K2 or MK2) enzyme.
A 1.25× stock solution of MK2 (PV3317, from Invitrogen) and a 5× stock solution of ATP and Sox conjugated peptide substrate, AQT0425 (CSKS-AQT0425B, from AssayQuant Technologies), were prepared in 1× kinase reaction buffer consisting of 50 mM HEPES, pH 7.5, 0.01% Brij-35, 0.55 mM EGTA, 10 mM MgCl2 and 1 mM DTT.
10 μL of the ATP and substrate solution mix was added to a Coming (3574) 384-well, white, non-binding surface microtiter plate containing 0.5 μL of serially diluted test compounds prepared in DMSO. The reactions were started with the addition of 40 μL of the enzyme solution and monitored every 71 seconds for 240 min at kex 360/λem 485 in a Synergy H4 plate reader from BioTek at room temperature.
The initial linear portions of the net progress curves were fit according to a linear equation to yield the slope and percentage of inhibition (% inhibition) at each compound concentration. The net progress curves obtained during the entirety of reactions were also fit according to an ascending single-exponential equation (Eq. 1) to yield Vobs values at each compound concentration. Plots of % Inhibition versus degrader concentrations were fit according to a dose-response equation (Eq. 2) to generate IC50 and Hill slope values while plots of Vobs versus degrader concentration were fit according to Equation 3 (Eq. 3) to generate apparent Kinact values using the GraphPad PRISM software.
where F is the fluorescence intensity from the plate reader, V0 is a constant reflecting the relationship between the instrument readout and product concentration, t is time, e is Euler's number, and Vobs is the observed inactivation rate constant.
where % Inhibition is percentage of inhibition, IC50 is half maximal inhibitory concentration, [I] is the degraders concentration, and n is the Hill slope.
where kobs is the observed inactivation rate constant, Kinact is the apparent inactivation rate constant, K1 is the apparent inhibition constant, and [I] is the degrader concentration.

T1 sequence (P49137 whole entry): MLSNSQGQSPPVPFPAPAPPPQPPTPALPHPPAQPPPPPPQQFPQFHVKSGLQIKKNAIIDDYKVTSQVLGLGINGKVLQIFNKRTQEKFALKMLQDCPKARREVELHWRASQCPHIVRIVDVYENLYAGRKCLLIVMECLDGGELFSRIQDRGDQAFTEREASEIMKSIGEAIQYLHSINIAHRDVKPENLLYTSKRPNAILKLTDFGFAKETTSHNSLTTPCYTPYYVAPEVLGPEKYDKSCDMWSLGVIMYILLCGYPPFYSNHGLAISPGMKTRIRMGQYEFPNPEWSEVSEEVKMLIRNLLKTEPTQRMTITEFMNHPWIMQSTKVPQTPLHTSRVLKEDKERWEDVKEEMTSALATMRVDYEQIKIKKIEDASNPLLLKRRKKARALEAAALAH

pIC50	Compound
> 6.82	C[C@@H]1CNc2c(sc3ccc4nc(-c5ccc(C(=O)NCCN6CCN(c7ccc(C8CCC(=O)NC8=O)cc7)CC6)cc5F)ccc4c23)C(=O)N1 (stereo partly drawn) [Ex 8, N-(2-(4-(4-(2,6-Dioxopiperidin-3-yl)phenyl)piperazin-1-yl)ethyl)-3-fluoro-4-((R)-10-methyl-8-oxo-9,10,11,12-tetrahydro-8H-[1,4]diazepino[5′,6′:4,5]thieno[3,2-f]quinolin-3-yl)benzamide]
> 6.82	C[C@@H]1COc2c(sc3ccc4nc(-c5ccc(N6CCN(CCN7CCN(c8ccc9c(C%10CCC(=O)NC%10=O)nn(C)c9c8)CC7)CC6)cc5)ccc4c23)C(=O)N1 (stereo partly drawn) [Ex 26]
> 6.82	C[C@@H]1CNc2c(sc3ccc4nc(-c5cnn(C6CN(CCN7CCN(c8ccc9c(C%10CCC(=O)NC%10=O)nn(C)c9c8)CC7)C6)c5)ccc4c23)C(=O)N1 (stereo partly drawn) [Ex 52, 3-(1-Methyl-6-(4-(2-(3-(4-((R)-10-methyl-8-oxo-9,10,11,12-tetrahydro-8H-[1,4]diazepino[5′,6′:4,5]thieno[3,2-f]quinolin-3-yl)-1H-pyrazol-1-yl)azetidin-1-yl)ethyl)piperazin-1-yl)-1H-indazol-3-yl)piperidine-2,6-dione]
> 6.82	C[C@@H]1COc2c(sc3ccc4nc(-c5cccc(N6CCN(CCN7CCN(c8ccc(C9CCC(=O)NC9=O)cc8)CC7)CC6)c5)ccc4c23)C(=O)N1 (stereo partly drawn) [Ex 16, 3-(4-(4-(2-(4-(3-((R)-10-Methyl-8-oxo-8,9,10,11-tetrahydro-[1,4]oxazepino[7′,6′:4,5]thieno[3,2-f]quinolin-3-yl)phenyl)piperazin-1-yl)ethyl)piperazin-1-yl)phenyl)piperidine-2,6-dione]
> 6.82	C[C@@H]1CNc2c(sc3ccc4nc(-c5ccc(N6CC7CC(C6)N7CCN6CCN(c7ccc(C8CCC(=O)NC8=O)cc7)CC6)cc5)ccc4c23)C(=O)N1 (stereo partly drawn) [Ex 24, 3-(4-(4-(2-(3-(4-((R)-10-Methyl-8-oxo-9,10,11,12-tetrahydro-8H-[1,4]diazepino[5′,6′:4,5]thieno[3,2-f]quinolin-3-yl)phenyl)-3,6-diazabicyclo[3.1.1]heptan-6-yl)ethyl)piperazin-1-yl)phenyl)piperidine-2,6-dione]
> 6.82	C[C@@H]1CNc2c(sc3ccc4nc(-n5cc(C6CN(CCN7CCN(c8ccc(C9CCC(=O)NC9=O)cc8)CC7)C6)nn5)ccc4c23)C(=O)N1 (stereo partly drawn) [Ex 53, 3-(4-(4-(2-(3-(1-((R)-10-Methyl-8-oxo-9,10,11,12-tetrahydro-8H-[1,4]diazepino[5′,6′:4,5]thieno[3,2-f]quinolin-3-yl)-1H-1,2,3-triazol-4-yl)azetidin-1-yl)ethyl)piperazin-1-yl)phenyl)piperidine-2,6-dione]
> 6.82	C[C@@H]1CNc2c(sc3ccc4nc(-c5cccc(C6CCN(CCN7CCN(c8ccc(C9CCC(=O)NC9=O)cc8)CC7)CC6)c5)ccc4c23)C(=O)N1 (stereo partly drawn) [Ex 18, 3-(4-(4-(2-(4-(3-((R)-10-Methyl-8-oxo-9,10,11,12-tetrahydro-8H-[1,4]diazepino[5′,6′:4,5]thieno[3,2-f]quinolin-3-yl)phenyl)piperidin-1-yl)ethyl)piperazin-1-yl)phenyl)piperidine-2,6-dione]
6.30 to 6.82	C[C@@H]1CNc2c(sc3ccc4nc(-c5ccc(N6CCN(CCN7CCN(c8ccc9c(C%10CCC(=O)NC%10=O)nn(C)c9c8)CC7)CC6)cc5)ccc4c23)C(=O)N1 (stereo partly drawn) [Ex 21, 3-(1-Methyl-6-(4-(2-(4-(4-((R)-10-methyl-8-oxo-9,10,11,12-tetrahydro-8H-[1,4]diazepino[5′,6′:4,5]thieno[3,2-f]quinolin-3-yl)phenyl)piperazin-1-yl)ethyl)piperazin-1-yl)-1H-indazol-3-yl)piperidine-2,6-dione]
> 6.82	C[C@@H]1CNc2c(sc3ccc4nc(-c5ccc(N6CC(CCN7CCN(c8ccc(C9CCC(=O)NC9=O)cc8)CC7)C6)cc5)ccc4c23)C(=O)N1 (stereo partly drawn) [Ex 42, 3-(4-(4-(2-(1-(4-((R)-10-Methyl-8-oxo-9,10,11,12-tetrahydro-8H-[1,4]diazepino[5′,6′:4,5]thieno[3,2-f]quinolin-3-yl)phenyl)azetidin-3-yl)ethyl)piperazin-1-yl)phenyl)piperidine-2,6-dione]
> 6.82	C[C@@H]1CNc2c(sc3ccc4nc(-c5ccc(C(=O)NC6CCN(c7ccc(C8CCC(=O)NC8=O)cc7)CC6)cc5F)ccc4c23)C(=O)N1 (stereo partly drawn) [Ex 7, N-(1-(4-(2,6-Dioxopiperidin-3-yl)phenyl)piperidin-4-yl)-3-fluoro-4-((R)-10-methyl-8-oxo-9,10,11,12-tetrahydro-8H-[1,4]diazepino[5′,6′:4,5]thieno[3,2-f]quinolin-3-yl)benzamide]
> 6.82	C[C@@H]1CNc2c(sc3ccc4nc(-n5cc(C6CCN(CCN7CCC(c8ccc(C9CCC(=O)NC9=O)cc8)CC7)CC6)nn5)ccc4c23)C(=O)N1 (stereo partly drawn) [Ex 47, 3-(4-(1-(2-(4-(1-((R)-10-Methyl-8-oxo-9,10,11,12-tetrahydro-8H-[1,4]diazepino[5′,6′:4,5]thieno[3,2-f]quinolin-3-yl)-1H-1,2,3-triazol-4-yl)piperidin-1-yl)ethyl)piperidin-4-yl)phenyl)piperidine-2,6-dione]
> 6.82	C[C@@H]1CNc2c(sc3ccc4nc(-c5cccc(N6CCN(CCN7CCN(c8ccc9c(C%10CCC(=O)NC%10=O)nn(C)c9c8)CC7)CC6)c5)ccc4c23)C(=O)N1 (stereo partly drawn) [Ex 12, 3-(1-Methyl-6-(4-(2-(4-(3-((R)-10-methyl-8-oxo-9,10,11,12-tetrahydro-8H-[1,4]diazepino[5′,6′:4,5]thieno[3,2-f]quinolin-3-yl)phenyl)piperazin-1-yl)ethyl)piperazin-1-yl)-1H-indazol-3-yl)piperidine-2,6-dione]
> 6.82	C[C@@H]1CNc2c(sc3ccc4nc(-c5ccc(C(=O)N[C@H]6CC[C@H](CN7CCN(c8ccc9c(C%10CCC(=O)NC%10=O)nn(C)c9c8)CC7)CC6)cc5F)ccc4c23)C(=O)N1 (stereo partly drawn) [Ex 5, N-(trans-4-((4-(3-(2,6-dioxopiperidin-3-yl)-1-methyl-1H-indazol-6-yl)piperazin-1-yl)methyl)cyclohexyl)-3-fluoro-4-((R)-10-methyl-8-oxo-9,10,11,12-tetrahydro-8H-[1,4]diazepino[5′,6′:4,5]thieno[3,2-f]quinolin-3-yl)benzamide]
6.00 to 6.30	C[C@@H]1COc2c(sc3ccc4nc(C#CC5CCN(C(=O)C(=O)N6CCN(c7ccc(C8CCC(=O)NC8=O)cc7)CC6)CC5)ccc4c23)C(=O)N1 (stereo partly drawn) [Ex 55, 3-(4-(4-(2-(4-(((R)-10-Methyl-8-oxo-8,9,10,11-tetrahydro-[1,4]oxazepino[7′,6′:4,5]thieno[3,2-f]quinolin-3-yl)ethynyl)piperidin-1-yl)-2-oxoacetyl)piperazin-1-yl)phenyl)piperidine-2,6-dione]
> 6.82	C[C@@H]1CNc2c(sc3ccc4nc(-c5cn(C6CCN(CCN7CCN(c8ccc(C9CCC(=O)NC9=O)cc8)CC7)CC6)nn5)ccc4c23)C(=O)N1 (stereo partly drawn) [Ex 49, 3-(4-(4-(2-(4-(4-((R)-10-Methyl-8-oxo-9,10,11,12-tetrahydro-8H-[1,4]diazepino[5′,6′:4,5]thieno[3,2-f]quinolin-3-yl)-1H-1,2,3-triazol-1-yl)piperidin-1-yl)ethyl)piperazin-1-yl)phenyl)piperidine-2,6-dione]
6.30 to 6.82	C[C@@H]1COc2c(sc3ccc4nc(-c5ccc(N6CCN(CCN7CCN(c8ccc(C9CCC(=O)NC9=O)cc8)CC7)CC6)cc5)ccc4c23)C(=O)N1 (stereo partly drawn) [Ex 25, 3-(4-(4-(2-(4-(4-((R)-10-Methyl-8-oxo-8,9,10,11-tetrahydro-[1,4]oxazepino[7′,6′:4,5]thieno[3,2-f]quinolin-3-yl)phenyl)piperazin-1-yl)ethyl)piperazin-1-yl)phenyl)piperidine-2,6-dione]
> 6.82	C[C@@H]1CNc2c(sc3ccc4nc(-c5ccc(C(=O)NCCN6CCN(c7ccc8c(C9CCC(=O)NC9=O)nn(C)c8c7)CC6)cc5F)ccc4c23)C(=O)N1 (stereo partly drawn) [Ex 2, N-(2-(4-(3-(2,6-dioxopiperidin-3-yl)-1-methyl-1H-indazol-6-yl)piperazin-1-yl)ethyl)-3-fluoro-4-((R)-10-methyl-8-oxo-9,10,11,12-tetrahydro-8H-[1,4]diazepino[5′,6′:4,5]thieno[3,2-f]quinolin-3-yl)benzamide]
> 6.82	C[C@@H]1CNc2c(sc3ccc4nc(-c5cnn(C6CN(CCN7CCN(c8ccc(C9CCC(=O)NC9=O)cc8)CC7)C6)c5)ccc4c23)C(=O)N1 (stereo partly drawn) [Ex 51, 3-(4-(4-(2-(3-(4-((R)-10-Methyl-8-oxo-9,10,11,12-tetrahydro-8H-[1,4]diazepino[5′,6′:4,5]thieno[3,2-f]quinolin-3-yl)-1H-pyrazol-1-yl)azetidin-1-yl)ethyl)piperazin-1-yl)phenyl)piperidine-2,6-dione]

— patent US20260109708A1, “COMPOUNDS AND COMPOSITIONS USEFUL AS DEGRADERS OF MK2 KINASE” (Celgene Corporation, priority 2023, published 2026)
